Laboratory results taken from patent publication US20190247371A1, “METHODS FOR TREATING SMALL CELL LUNG CANCERS BY USING PHARMACEUTICAL COMPOSITIONS OR COMBINATIONS COMPRISING INDOLIZINO[6,7-B]INDOLE DERIVATIVES” (priority 2016, published 2019).
Read-outs that look alike come from different tables or passages of the source.

Columns and labels:
SCLC H211 cells [1] = assay: Cell cycle analysis by flow cytometry, H211 cells; type: cell-based; conditions: 24, 48, 72 h, FIG. 9
Description: H211 cells were treated with various concentrations of (A) BO-1978, (B) BMN-673, or (C) BO-1978 plus BMN-673 at 24, 48, and 72 h. At the end of treatment, the cells were harvested by trypsinization, fixed in ice-cold ethanol, stained with propidium iodide, and subjected to cell cycle analysis with a flow cytometer.
In the present invention, the SCLC H211 cells were treated with the combination of BO-1978 and BMN 673 or HY-10130 for 72 h. Cell survival was analyzed by PrestoBlue Assay. The combination index (CI) was calculated using CompuSyn software (Chou 2006^61).

H82 cells = assay: alamarBlue cytotoxicity assay, SCLC H82 cells; type: cell-based; conditions: read-out: IC50, concentration required to inhibit cell growth by 50%
Description: (§1) The inhibitory effect of BO-1978 on the cell growth of SCLC cell lines in vitro was examined. The cytotoxicity was assayed using alamarBlue® reagent (AbD Serotec) as previously described in U.S. Pat. No. 8,703,951 B2. In brief, H82, H211 and H526 cells were seeded to a 96 well plate with 5000, 1000 and 3000 cells per well, respectively, and incubated for 24 h. The growing cells were treated with BO-1978, cisplatin, etoposide or irinotecan at serial-diluted concentrations for 72 h at 37° C. An aliquot of alamarBlue® reagent (AbD Serotec) was added and the cultures were incubated for 5 h. The fluorescence at excitation 530 nm and emission 590 nm was read with a plate reader. The proliferation rate was calculated according to the manufacturer's instruction. The values of IC50 (50% inhibition concentration) for each compound were determined from dose-effect relationship using the CompuSyn software (Chou 2010^44).

H211 cells [2] = assay: alamarBlue cytotoxicity assay, SCLC H211 cells; type: cell-based; conditions: read-out: IC50, concentration required to inhibit cell growth by 50%
Description: as §1

H526 cells [3] = assay: alamarBlue cytotoxicity assay, SCLC H526 cells; type: cell-based; conditions: read-out: IC50, concentration required to inhibit cell growth by 50%
Description: as §1

SCLC H526 cells = assay: SCLC H526 tumor xenograft model, single agents; type: in vivo; conditions: for body weight change: doses within MTD: BO-1978 40 mg/kg QD×5, etoposide 10 mg/kg Q2D×3, irinotecan 30 mg/kg QD×6, cisplatin 6 mg/kg Q4D×3, FIG. 2B
Description: H526 cells (1×10^7) were subcutaneously implanted into nude mice. […] Tumor size and body weight were taken at the time indicated. A, average tumor size changes; B, average body weight changes; and C, Kaplan-Meyer survival curves.
The animals used in this study were treated exactly according to the guidelines of the Academia Sinica Institutional Animal Care and Utilization Committee. Male athymic nude mice in 5 weeks of age were obtained from the National Laboratory Animal Center (Taipei, Taiwan) and housed for 1 week before performing experiments H526 cells (1×10^7) were subcutaneously implanted into nude mice (five groups, each 4 mice). […] Etoposide (10 mg/kg Q2D×3), irinotecan (30 mg/kg QD×6), and cisplatin (6 mg/kg Q4D×3) were used as the positive control and were administered as indicated.

SCLC H211 cells [4] = assay: SCLC H211 tumor xenograft model, single agents; type: in vivo, nude mice; conditions: same dosages and route as H526 study, FIG. 3
Description: H211 (3×10^6) were subcutaneously implanted into nude mice. When rumor size reached 100-200 mm^3, BO-1978, etoposide, irinotecan, and cisplatin were i.v. administered as indicated. Tumor size and body weight were taken at the time indicated. A, tumor size; and B, body weight.
In another experiment, the effect of BO-1978 on the inhibition of SCLC H211 cells, a fast growing cell line, was evaluated in xenograft model. Mice were treated with the tested compounds under the same dosages and administration route as described above.

H526 cells [5] = assay: alamarBlue combined treatment cytotoxicity, H526 cells; type: cell-based; conditions: co-treated with irinotecan at various ratios, 72 h, FIG. 4
Description: Cell survival was analyzed using alamarBlue assay. CI indicates combination index A, BO-1978 and cisplatin; B, BO-1978 and etoposide; and C, BO-1978 and irinotecan.
(§2) Combination therapy is therapy that uses more than one drug for therapy. […] The resulting combination index (CI) theorem of Chou-Talalay offers quantitative definition for additive effect (CI=1), synergism (CI<1), and antagonism (CI>1) in drug combinations (Chou 2010^44).

H211 cells [6] = assay: alamarBlue combined treatment cytotoxicity, H211 cells; type: cell-based; conditions: co-treated with irinotecan at various ratios, 72 h, FIG. 5
Description: H211 cells were seeded and treated with various concentrations of BO-1978, or therapeutic agents either alone or in combination for 72 h. Cell survival was analyzed using alamarBlue assay. CI indicates combination index. A, BO-1978 and cisplatin; B, BO-1978 and etoposide; and C, BO-1978 and irinotecan.
as §2

SCLC H526 xenografts = assay: SCLC H526 xenograft, BO-1978 and irinotecan alone or in combination; type: in vivo, nude mice
Description: H526 cells (1×10^7) were subcutaneously implanted into nude mice. When tumor size reached 100-200 mm^3, BO-1978 and irinotecan, either alone or in combination were i.v. administered as indicated. Tumor size and body weight were taken at the time indicated A, tumor size; and B, body weight.
The mice (n=5) bearing SCLC H526 xenografts were treated with BO-1978 (alone, 40 mg/kg, Q2D×5), irinotecan (alone, 30 mg/kg, Q2D×5), and BO-1978 (40 mg/kg)+irinotecan (30 mg/kg) (Q2D×5) via iv inj.

SCLC H211 = SCLC H211 xenograft, BO-1978 and irinotecan alone or in combination; type: in vivo, nude mice
Text: H211 cells (3×10^6) were subcutaneously implanted into nude mice. When tumor size reached 100-200 mm^3, BO-1978 and irinotecan, cither alone or in combination were i.v. administered as indicated. Tumor size and body weight were taken at the time indicated. A, tumor size; and B, body weight.
In another experiment, the therapeutic efficacy of BO-1978 (alone) or in combination with irinotecan against SCLC H211 was investigated in xenograft models (FIG. 7). The H211 bearing mice (n=5) were administered with BO-1978 (alone, 40 mg/kg, QD×5), irinotecan (alone, 30 mg/kg, QD×5), and BO-1978 (40 mg/kg)+irinotecan (30 mg/kg) (QD×5) via iv inj.

NSCLC cells = conditions: in vitro; cited from earlier work
[7] = test system: EGFR wild-type and mutant NSCLC tumors; conditions: cited from earlier work
[8] = preclinical toxicity studies; cited from earlier work
PC9/gef B4 cells = conditions: cited from earlier work

In the case of `Cn1ncnc1[C@H]1c2n[nH]c(=O)c3cc(F)cc(c23)N[C@@H]1c1ccc(F)cc1` [BMN 673, (8S,9R)-5-Fluoro-8-(4-fluorophenyl)-9-(1-methyl-1H-1,2,4-triazol-5-yl)-2,7,8,9-tetrahydro-3H-pyrido[4,3,2-de]phthalazin-3-one, reference compound], the “effect on G2/M phase of cell cycle” value (SCLC H211 cells [1]) is reported as “delayed the progression of the G2/M phase” and the “subG1 cells (apoptotic death)” value (SCLC H211 cells [1]) is reported as “did not induce subG1 cells”.

`CCc1c(CO)c(CO)c2n1Cc1c(c3ccccc3n1C)C2` [BO-1978, [3-ethyl-6-methyl-6,11-dihydro-5H-indolizino[6,7-b]indole-1,2-diyl]dimethanol] showed an IC50 (H82 cells; Homo sapiens, NCI-H82, H82, 72 h, mean ± S.D. of 3 independent experiments) of 350 ± 280 nM, an IC50 (H211 cells [2]; Homo sapiens, NCI-H211, H211, 72 h, mean ± S.D. of 3 independent experiments) of 148 ± 1 nM and an IC50 (H526 cells [3]; Homo sapiens, NCI-H526, H526, 72 h, mean ± S.D. of 3 independent experiments) of 76 ± 26 nM. The “therapeutic effect on tumor size” value (SCLC H526 cells; BO-1978 40 mg/kg QD×5 iv, FIG. 2A) was “more efficacious than etoposide, irinotecan and cisplatin”, the body weight change (SCLC H526 cells) was “did not cause body weight lost” and the survival term (SCLC H526 cells; one out of 4 mice, FIG. 2C) was over 430 days. For the same compound, the “inhibition of tumor growth” value (SCLC H211 cells [4]) was “more potent than the drugs used for comparison”, the cytotoxicity of co-treatment (H526 cells [5]) was “enhanced the cytotoxicity” and the cytotoxicity of co-treatment (H211 cells [6]) was “enhanced the cytotoxicity”. The tumor growth suppression (SCLC H526 xenografts; 40 mg/kg Q2D×5 iv, n=5) was “significantly suppressed tumor growth”, the “mice with complete remission (CR)” value (SCLC H526 xenografts; day 14, Q2D×5 iv) was 4/5 and the “mice with tumor <100 mm3” value (SCLC H526 xenografts; day 14, Q2D×5 iv) was 1/5. For the same compound, the “therapeutic efficacy, mono-drug comparison” value (SCLC H211; 40 mg/kg QD×5 iv, n=5) was “more potent than irinotecan (alone)”, the “day of tumor relapse” value (SCLC H211; QD×5 iv) was 18 days and the “day tumor CR was seen” value (SCLC H211; QD×5 iv) was 14 days. The “effect on G2/M phase of cell cycle” value (SCLC H211 cells [1]) was “induced severe G2/M arrest”, the “subG1 cells (apoptotic death)” value (SCLC H211 cells [1]) was “appearance of the subG1 cells at high doses” and the “cytotoxicity against cell growth of various NSCLC cells” value (NSCLC cells) was “significant cytotoxicity”. For the same compound, the body weight loss ([7]; xenograft and orthotopic lung tumor models) was “negligible body weight loss”, the “therapeutic efficacy in nude mice bearing NSCLC” value ([7]; xenograft and orthotopic models) was “potent therapeutic efficacy” and the toxicity in mice [8] was “does not cause apparent toxicity”. For the same compound, the “killing of cells with acquired gefitinib resistance” value (PC9/gef B4 cells) was “effectively kills”.

For `N.N.[Cl][Pt][Cl]` [Cisplatin, cis-diaminedichloroplatinum], the IC50 (H82 cells; H82, 72 h, mean ± S.D. of 3 independent experiments) was 340 ± 80 nM, the IC50 (H211 cells [2]; H211, 72 h, mean ± S.D. of 3 independent experiments) was 570 ± 290 nM and the IC50 (H526 cells [3]; H526, 72 h, mean ± S.D. of 3 independent experiments) was 660 ± 250 nM. For the same compound, the “day mice were sacrificed because tumor size was over 2,500 mm^3” value (SCLC H526 cells) was 35 days and the body weight change (SCLC H526 cells) was “did not cause body weight lost”.

`COc1cc([C@@H]2c3cc4c(cc3[C@@H](O[C@@H]3O[C@@H]5CO[C@@H](C)O[C@H]5[C@H](O)[C@H]3O)[C@H]3COC(=O)[C@H]23)OCO4)cc(OC)c1O` [Etoposide] gave an IC50 (H82 cells; Homo sapiens, NCI-H82, 72 h) of 146 ± 2 nM, an IC50 (H211 cells [2]; Homo sapiens, NCI-H211, 72 h) of 70 ± 30 nM and an IC50 (H526 cells [3]; Homo sapiens, NCI-H526, 72 h) of 50 ± 20 nM. For the same compound, the “day mice were sacrificed because tumor size was over 2,500 mm^3” value (SCLC H526 cells) was 35 days and the body weight change (SCLC H526 cells) was “did not cause body weight lost”.

`CCc1c2c(nc3ccc(OC(=O)N4CCC(N5CCCCC5)CC4)cc13)-c1cc3c(c(=O)n1C2)COC(=O)[C@]3(O)CC` [Irinotecan] gave an IC50 (H82 cells; Homo sapiens, NCI-H82, 72 h) of 1200 ± 70 nM, an IC50 (H211 cells [2]; Homo sapiens, NCI-H211, 72 h) of 30 ± 10 nM and an IC50 (H526 cells [3]; Homo sapiens, NCI-H526, 72 h) of 1180 ± 570 nM. For the same compound, the “day mice were sacrificed because tumor size was over 2,500 mm^3” value (SCLC H526 cells) was 45 days, the body weight change (SCLC H526 cells) was “did not cause body weight lost” and the “day of tumor relapse” value (SCLC H526 xenografts; 30 mg/kg Q2D×5 iv) was 15 days.
